From patent US20070249607A1, “NK-1 AND SEROTONIN TRANSPORTER INHIBITORS” (Bristol-Myers Squibb Company, priority 2006, published 2007)
Like-named read-outs stand apart in the source and are kept apart here.

Tests used:
[1] = target: T1, neurokinin-1 (NK-1) receptor (Homo sapiens, UniProt P25103); assay: NK-1 Binding assay ([125I] Substance P competition, U373 cell membranes); conditions: U373 membranes, [125I] Substance P displacement, read-out: NK-1 IC50
T1 construct: a human glioblastoma-astrocytoma cell line that endogenously expresses the neurokinin-1 (NK-1) receptor; endogenous in cells; host or cells: U373 human glioblastoma-astrocytoma cells (membranes)
T1 sequence (P25103 whole entry): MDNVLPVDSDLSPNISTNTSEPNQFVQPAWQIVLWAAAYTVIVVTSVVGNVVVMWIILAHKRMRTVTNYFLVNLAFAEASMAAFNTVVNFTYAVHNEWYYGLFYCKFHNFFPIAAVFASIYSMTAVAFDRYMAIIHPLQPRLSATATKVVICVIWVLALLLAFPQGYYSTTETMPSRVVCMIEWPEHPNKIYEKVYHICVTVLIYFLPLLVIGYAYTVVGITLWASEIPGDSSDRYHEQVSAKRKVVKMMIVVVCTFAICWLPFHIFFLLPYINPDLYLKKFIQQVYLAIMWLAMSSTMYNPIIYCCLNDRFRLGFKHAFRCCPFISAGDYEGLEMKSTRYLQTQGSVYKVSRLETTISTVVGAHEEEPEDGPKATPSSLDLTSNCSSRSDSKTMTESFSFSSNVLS
Protocol: NK-1 Binding assay. U373 cells, a human glioblastoma-astrocytoma cell line that endogenously expresses the neurokinin-1 (NK-1) receptor, were grown in a monolayer culture at 37° C. in 5% CO2 and fed with Minimum Essential Medium (MEM) supplemented with 10% fetal bovine serum. Membranes were prepared as follows: Cells were washed twice with ice-cold phosphate-buffered saline (pH 7.4) and then incubated for 5-10 minutes with ice-cold 10 mM Tris buffer (pH 7.4) containing 5 mM EDTA. Cells were removed from plates, homogenized, and centrifuged at 32,000×g for 20 minutes. The resulting supernatant was discarded, and the pellet resuspended by homogenization in 50 mM Tris buffer (pH 7.4) containing 1 mM EDTA and centrifuged at 32,000×g for 20 minutes. The resulting supernatant was discarded, and the pellet resuspended by homogenization in NK-1 binding assay buffer (50 mM Tris-HCL (pH 7.4), 3 mM MnCl2, 200 μg/ml BSA, 5 μg/ml chymostatin, 40 μg/ml bacitracin and 4 μg/ml leupeptin).
On the day of an experiment the membrane preparation was thawed, homogenized and diluted with NK-1 binding assay buffer to the appropriate concentration. […] Substance P, at a concentration of […], and concentrations of drugs ranging from 10000 to 0.01 nM. Samples were incubated for 30 min at 20° C. then filtered through GF/B glass fiber filters (pretreated with 1% polyethyleneimine and 0.3% Triton X-100) using a Brandel cell harvester. The filters were then washed with 10 ml ice cold 50 mM Tris-HCL (pH 7.4) containing 3 mM MgCl2. […] The amount of radioligand bound in the presence and absence of competitor was analyzed by plotting (-)log drug concentration versus the amount of radioligand specifically bound. The midpoint of the displacement curve (IC50, nM), signifies the potency.

[2] = target: T2, human serotonin transporters (Homo sapiens, UniProt P31645); assay: Serotonin transporter binding assay ([3H]-citalopram competition, HEK-hSERT cell membranes)
T2 construct: expressed in transfected cells
T2 sequence (P31645 whole entry): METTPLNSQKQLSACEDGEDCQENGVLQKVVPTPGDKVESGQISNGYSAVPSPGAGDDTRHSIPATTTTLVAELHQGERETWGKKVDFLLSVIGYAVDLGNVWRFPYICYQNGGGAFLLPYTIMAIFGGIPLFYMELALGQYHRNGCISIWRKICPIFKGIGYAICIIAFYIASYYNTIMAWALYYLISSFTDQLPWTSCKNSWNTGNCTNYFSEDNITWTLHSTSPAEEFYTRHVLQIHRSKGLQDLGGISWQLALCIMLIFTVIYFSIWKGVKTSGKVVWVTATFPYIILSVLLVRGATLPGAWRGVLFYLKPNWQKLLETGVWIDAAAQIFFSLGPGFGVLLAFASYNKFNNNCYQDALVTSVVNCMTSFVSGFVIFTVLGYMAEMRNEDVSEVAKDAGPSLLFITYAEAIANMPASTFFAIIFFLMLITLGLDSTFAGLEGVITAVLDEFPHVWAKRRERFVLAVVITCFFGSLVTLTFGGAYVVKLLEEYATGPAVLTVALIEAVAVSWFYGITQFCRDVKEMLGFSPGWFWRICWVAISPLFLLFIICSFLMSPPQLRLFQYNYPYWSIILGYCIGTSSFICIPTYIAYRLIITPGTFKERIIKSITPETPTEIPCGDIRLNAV
Protocol: Serotonin transporter binding assay. HEK-293 cells that stably express human serotonin transporters (HEK-hSERT cells) were grown at 37° C. in 5% CO2 as a monolayer in medium consisting of EMEM supplemented with 10% fetal bovine serum and G418 sulfate (500 μg/ml). To prepare membranes for radioligand binding experiments, cells were rinsed twice with phosphate-buffered saline (138 mM NaCl, 4.1 mM KCl, 5.1 mM Na2PO4, 1.5 mM KH2PO4, 11.1 mM glucose, pH 7.4). Cells were transferred from plates to polypropylene tubes (16×100 mm), centrifuged at 1,200×g for 5 min and were frozen at −80° C. until assay. Following centrifugation, pellets were resuspended by homogenization in buffer consisting of 50 mM Tris (pH 7.7 at 25° C.), 120 mM NaCl and 5 mM KCl and then centrifuged at 32,000×g for 10 min. Following centrifugation, supernatants were discarded and pellets were resuspended in buffer consisting of 50 mM Tris (pH 7.4 at 25° C.), 150 mM NaCl and 5 mM KCl. Membrane homogenates (200 μl/plate) were incubated with 1 nM [^3H]-citalopram (specific activity=85 Ci/mmol) and increasing concentrations of test compounds for 1 hr at 25° C. in a total volume of 250 μl. The assay buffer consisted of 50 mM Tris (pH 7.4 at 25° C.), 120 mM NaCl and 5 mM KCl (pH 7.4 with conc. HCl). Plates were incubated for 1 hr at 25° C., then filtered through 0.5% PEI treated Whatman GF/B filters using a Brandel cell harvester. Filters were washed three times with 3 ml of ice-cold tris wash buffer. Non-specific binding was defined with 10 μM fluoxetine. Amount of radioligand bound in the presence and absence of competitor was analyzed by plotting (-)log drug concentration versus the amount of radioligand specifically bound. The midpoint of the displacement curve (IC50, nM), signifies the potency. Ki values can be calculated using the method of Cheng and Prusoff (Cheng and Prusoff, BiochemicalPharmacology, Vol 22, pp. 3099-3108, Pergamon Press (1973)).

[3] = Table 2, HEK-hSERT membranes, [3H]-citalopram displacement, read-out: SERT IC50
[4] = Table 1, HEK-hSERT membranes, [3H]-citalopram displacement, read-out: SERT IC50

| Structure (SMILES) | IC50 ([1]; Table 2) [nM] | IC50 [2, 3] [nM] | IC50 ([1]; Table 1) [nM] | IC50 [2, 4] [nM] | IC50 [2] [nM] |
| --- | --- | --- | --- | --- | --- |
| CC(C)OC(=O)c1cccc(-c2cc(COCC3(c4ccccc4)CCNCC3)cc(C(F)(F)F)c2)c1 | > 300 | 100 to 300 | – | – | – |
| N#Cc1ccc(-c2cc(Br)cc(COCC3(c4ccccc4)CCNCC3)c2)cc1 | – | – | 0.01 to 100 | 0.01 to 100 | – |
| COc1ccc(-c2cc(COCC3(c4ccccc4)CCNCC3)cc(C(F)(F)F)c2)c(OC)n1 | 0.01 to 100 | 0.01 to 100 | – | – | – |
| N#Cc1c(F)c(F)c(-c2cc(COCC3(c4ccccc4)CCNCC3)cc(C(F)(F)F)c2)c(F)c1F | 0.01 to 100 | 0.01 to 100 | – | – | – |
| COc1c(C)cc(-c2cc(COCC3(c4ccccc4)CCNCC3)cc(C(F)(F)F)c2)cc1C | – | – | 100 to 300 | 100 to 300 | – |
| COc1cc(-c2cc(COCC3(c4ccccc4)CCNCC3)cc(C(F)(F)F)c2)c(F)cn1 | – | – | 100 to 300 | 0.01 to 100 | – |
| CN1CCC(COCc2cc(-c3ccc(Cl)cc3)cc(C(F)(F)F)c2)(c2ccccc2)CC1 | 0.01 to 100 | – | – | – | 0.01 to 100 |
| CN1CCC(COCc2cc(-c3ccc(F)cc3)cc(C(F)(F)F)c2)(c2ccccc2)CC1 | 0.01 to 100 | – | – | – | 0.01 to 100 |
| CN1CCC(COCc2cc(-c3ccc(C#N)c(Cl)c3)cc(C(F)(F)F)c2)(c2ccccc2)CC1 | 0.01 to 100 | – | – | – | 0.01 to 100 |
| OCc1cccc(-c2cc(COCC3(c4ccccc4)CCNCC3)cc(C(F)(F)F)c2)c1 | – | – | 100 to 300 | 0.01 to 100 | – |
| Fc1ccc(-c2cc(COCC3(c4ccc(F)cc4)CCNCC3)cc(C(F)(F)F)c2)cc1 | 0.01 to 100 | 0.01 to 100 | – | – | – |
| CN1CCC(COCc2cc(-c3ccc(F)cc3F)cc(C(F)(F)F)c2)(c2ccccc2)CC1 | 0.01 to 100 | – | – | – | 0.01 to 100 |
| FC(F)(F)c1cc(COCC2(c3ccccc3)CCNCC2)cc(-c2ccc(-c3ccccc3)cc2)c1 | – | – | 100 to 300 | 0.01 to 100 | – |
| Cc1cc(COCC2(c3ccccc3)CCNCC2)cc(-c2ccc(C#N)cc2)c1 | 0.01 to 100 | 0.01 to 100 | – | – | – |
| COc1cc(-c2cc(COCC3(c4ccccc4)CCN(C)CC3)cc(C(F)(F)F)c2)ccc1C#N | 0.01 to 100 | – | – | – | 0.01 to 100 |
| Cn1cncc1-c1cc(COCC2(c3ccccc3)CCNCC2)cc(C(F)(F)F)c1 | – | – | 100 to 300 | 0.01 to 100 | – |
| Cc1cc(-c2cc(COCC3(c4cccnc4)CCN(C)CC3)cc(C(F)(F)F)c2)ccc1C#N | 0.01 to 100 | – | – | – | 0.01 to 100 |
| Cc1cc(-c2cc(COCC3(c4ccccc4)CCNCC3)cc(C(F)(F)F)c2)ccc1F | 0.01 to 100 | 0.01 to 100 | – | – | – |
| Fc1cccc(F)c1-c1cc(COCC2(c3ccccc3)CCNCC2)cc(C(F)(F)F)c1 | – | – | 0.01 to 100 | 0.01 to 100 | – |
| FC(F)(F)c1cc(COCC2(c3ccccc3)CCNCC2)cc(-c2ccc(Cl)cc2)c1 | – | – | 0.01 to 100 | 0.01 to 100 | – |
| FC(F)(F)c1ccc(-c2cc(COCC3(c4ccccc4)CCNCC3)cc(C(F)(F)F)c2)cc1 | – | – | 0.01 to 100 | 0.01 to 100 | – |
| CC(=O)c1ccc(-c2cc(COCC3(c4ccccc4)CCNCC3)cc(C(F)(F)F)c2)cc1 | – | – | 100 to 300 | 0.01 to 100 | – |
| CC(C)OC(=O)c1ccc(-c2cc(COCC3(c4ccccc4)CCNCC3)cc(C(F)(F)F)c2)cc1 | 0.01 to 100 | 0.01 to 100 | – | – | – |
| COc1ccc2cc(-c3cc(COCC4(c5ccccc5)CCNCC4)cc(C(F)(F)F)c3)ccc2c1 | > 300 | 0.01 to 100 | – | – | – |
| CCc1ccccc1-c1cc(COCC2(c3ccccc3)CCNCC2)cc(C(F)(F)F)c1 | > 300 | 0.01 to 100 | – | – | – |
| COc1cc(COCC2(c3ccccc3)CCNCC2)cc(-c2ccc(F)cc2)c1 | 0.01 to 100 | 0.01 to 100 | – | – | – |
